This is an account of results in patent US20100249145A1, “Inhibitors of VEGF Receptor and HGF Receptor Signaling” (Methylgene, Inc., priority 2005, published 2010).

SMILES strings stand for the structures.

T1 sequence (P08581 1078-1337): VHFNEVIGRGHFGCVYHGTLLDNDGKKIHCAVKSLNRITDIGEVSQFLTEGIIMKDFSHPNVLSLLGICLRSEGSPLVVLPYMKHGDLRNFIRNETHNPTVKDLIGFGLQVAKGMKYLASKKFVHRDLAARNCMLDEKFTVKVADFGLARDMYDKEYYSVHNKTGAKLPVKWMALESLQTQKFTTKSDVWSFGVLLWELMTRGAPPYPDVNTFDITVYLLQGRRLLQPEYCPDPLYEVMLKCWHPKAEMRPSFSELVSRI

The first experiment has as its target T1, recombinant human c-Met/HGF receptor (Homo sapiens, UniProt P08581).
T1 construct: His tag (histidine tag from pBlueBacHis2A); made in house; host or cells: Hi-5 cells (Trichoplusia ni), recombinant baculovirus
Description: In vitro receptor tyrosine kinase assay (DELFIA), c-Met/HGF receptor. Type of experiment: biochemical. Particulars: Table 31; ATP 10 uM, enzyme 25 nM; read-out: CMet ic50.
One may read the IC50 as the concentration that gives 50% inhibition. With `COc1ccccc1CC(=O)NC(=S)Nc1ccc(Oc2ccnc3cc(-c4cn(CC(N)=O)cn4)sc23)c(F)c1`, the IC50 was in the range of 50 to 250 nM.

Turning to `CN1CCN(CCN(C)Cc2ccc(-c3cc4nccc(Oc5ccc(NC(=S)NC(=O)Cc6ccccc6)cc5F)c4s3)cc2)CC1`, the IC50 was under 50 nM.

Consider `CN(c1ccc(NC(=S)NC(=O)Cc2ccccc2)cc1F)c1ccnc2cc(-c3cn(C)cn3)sc12`, for which the IC50 is under 50 nM.

With `CN1CCN(Cc2ccc(-c3cc4nccc(Oc5ccc(NC(=S)NC(=O)Cc6ccccc6)cc5F)c4s3)nc2)CC1`, the IC50 is under 50 nM.

In the case of `O=C(Cc1ccccc1)NC(=S)Nc1ccc(Oc2ccnc3cc(-c4cn(CCN5CCCC5)cn4)sc23)c(F)c1`, the IC50 was under 50 nM.

Turning to `COc1cccc(Nc2cc3nccc(Oc4ccc(NC(=S)NC(=O)Cc5ccccc5OC)cc4F)c3s2)c1`, the concentration for half-maximal inhibition (IC50) was in the range of 50 to 250 nM.

Take `CN(CCO)Cc1ccc(-c2cc3nccc(Oc4ccc(NC(=S)NC(=O)Cc5ccccc5)cc4F)c3s2)cc1`: the concentration for half-maximal inhibition (IC50) is under 50 nM.

`CN1CCN(Cc2ccc(-c3cc4nccc(Oc5ccc(NC(=S)NC(=O)Cc6ccccc6)cc5F)c4s3)cc2)CC1`: the 50% inhibitory concentration (IC50) was under 50 nM.

As to `Cn1ccnc1-c1cc2nccc(Sc3ccc(NC(=S)NC(=O)Cc4ccccc4)cc3)c2s1`, the IC50 was under 50 nM.

In the case of `CN1CC=C(c2cc3nccc(Oc4ccc(NC(=S)NC(=O)Cc5ccccc5)cc4F)c3s2)CC1`, the IC50 was under 50 nM.

As for `O=C(Cc1ccccc1)NC(=S)Nc1ccc(Oc2ccnc3cc(-c4ccc(CN5CCNCC5)cc4)sc23)c(F)c1`, the IC50 is under 50 nM.

On to `CCNC(=O)N1CCN(Cc2ccc(-c3cc4nccc(Oc5ccc(NC(=S)NC(=O)Cc6ccccc6)cc5F)c4s3)cc2)CC1`, for which the IC50 was under 50 nM.

Turning to `CCn1cnc(-c2cc3nccc(Oc4ccc(NC(=S)NC(=O)Cc5ccc(F)cc5F)cc4F)c3s2)c1`, the concentration for half-maximal inhibition (IC50) was under 50 nM.

Take `CN1CC=C(c2cc3nccc(Oc4ccc(NC(=S)NC(=O)Cc5ccc(F)cc5)cc4F)c3s2)CC1`: the IC50 is under 50 nM.

In the case of `CCn1cnc(-c2cc3nccc(Oc4ccc(NC(=S)NC(=O)Cc5ccc(F)cc5)cc4F)c3s2)c1`, the 50% inhibitory concentration (IC50) is under 50 nM.

In the case of `O=C(Cc1ccccc1)NC(=S)Nc1ccc(Oc2ccnc3cc(-c4ccc(CN5CCCC5)cn4)sc23)c(F)c1`, the IC50 is under 50 nM.

On to `CCn1ccnc1-c1cc2nccc(Oc3ccc(NC(=S)NC(=O)Cc4ccc(F)cc4F)cc3F)c2s1`, for which the concentration for half-maximal inhibition (IC50) is under 50 nM.

In the case of `Cn1ccnc1-c1cc2nccc(Oc3ccc(NC(=S)NC(=O)Cc4ccc(F)cc4F)cc3F)c2s1`, the IC50 is under 50 nM.

The target of another experiment is T2, VEGF receptor KDR (Homo sapiens, UniProt P35968).
T2 construct: made in house; host or cells: Sf9 cells (Spodoptera frugiperda), recombinant baculovirus
T2 sequence (P35968 806-1356): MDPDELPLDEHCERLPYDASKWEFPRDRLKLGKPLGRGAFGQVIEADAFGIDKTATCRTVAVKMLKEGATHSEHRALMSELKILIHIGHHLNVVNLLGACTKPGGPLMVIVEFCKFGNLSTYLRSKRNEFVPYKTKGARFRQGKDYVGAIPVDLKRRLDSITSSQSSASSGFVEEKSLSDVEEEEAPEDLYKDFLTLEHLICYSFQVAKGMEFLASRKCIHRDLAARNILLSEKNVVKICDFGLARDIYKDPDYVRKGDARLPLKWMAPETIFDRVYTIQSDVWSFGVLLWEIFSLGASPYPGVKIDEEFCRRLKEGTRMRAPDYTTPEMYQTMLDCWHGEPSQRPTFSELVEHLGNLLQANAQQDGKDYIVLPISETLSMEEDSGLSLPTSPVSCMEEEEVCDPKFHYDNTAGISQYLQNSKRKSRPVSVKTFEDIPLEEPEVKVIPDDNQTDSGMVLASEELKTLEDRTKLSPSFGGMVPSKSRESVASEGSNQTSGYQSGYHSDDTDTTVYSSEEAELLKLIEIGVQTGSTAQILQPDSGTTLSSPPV
Description: In vitro receptor tyrosine kinase assay (DELFIA), VEGF receptor KDR. Type of experiment: biochemical. Particulars: Table 31; ATP 0.6 uM, enzyme 5 nM; read-out: VEGFR IC50.
Consider `COc1ccccc1CC(=O)NC(=S)Nc1ccc(Oc2ccnc3cc(-c4cn(CC(N)=O)cn4)sc23)c(F)c1`, for which the IC50 lay in the range of 50 to 250 nM.

As for `CN1CCN(CCN(C)Cc2ccc(-c3cc4nccc(Oc5ccc(NC(=S)NC(=O)Cc6ccccc6)cc5F)c4s3)cc2)CC1`, the 50% inhibitory concentration (IC50) was under 50 nM.

Regarding `CN(c1ccc(NC(=S)NC(=O)Cc2ccccc2)cc1F)c1ccnc2cc(-c3cn(C)cn3)sc12`, the half-maximal inhibitory concentration (IC50) was over 500 nM.

Take `CN1CCN(Cc2ccc(-c3cc4nccc(Oc5ccc(NC(=S)NC(=O)Cc6ccccc6)cc5F)c4s3)nc2)CC1`: the IC50 was under 50 nM.

Turning to `O=C(Cc1ccccc1)NC(=S)Nc1ccc(Oc2ccnc3cc(-c4cn(CCN5CCCC5)cn4)sc23)c(F)c1`, the 50% inhibitory concentration (IC50) was under 50 nM.

On to `COc1cccc(Nc2cc3nccc(Oc4ccc(NC(=S)NC(=O)Cc5ccccc5OC)cc4F)c3s2)c1`, for which the IC50 is over 500 nM.

Turning to `CN(CCO)Cc1ccc(-c2cc3nccc(Oc4ccc(NC(=S)NC(=O)Cc5ccccc5)cc4F)c3s2)cc1`, the IC50 was under 50 nM.

As for `CN1CCN(Cc2ccc(-c3cc4nccc(Oc5ccc(NC(=S)NC(=O)Cc6ccccc6)cc5F)c4s3)cc2)CC1`, the IC50 was under 50 nM.

In the case of `Cn1ccnc1-c1cc2nccc(Sc3ccc(NC(=S)NC(=O)Cc4ccccc4)cc3)c2s1`, the concentration for half-maximal inhibition (IC50) was over 500 nM.

Take `CN1CC=C(c2cc3nccc(Oc4ccc(NC(=S)NC(=O)Cc5ccccc5)cc4F)c3s2)CC1`: the half-maximal inhibitory concentration (IC50) was in the range of 250 to 500 nM.

For `O=C(Cc1ccccc1)NC(=S)Nc1ccc(Oc2ccnc3cc(-c4ccc(CN5CCNCC5)cc4)sc23)c(F)c1`, the half-maximal inhibitory concentration (IC50) was under 50 nM.

With `CCNC(=O)N1CCN(Cc2ccc(-c3cc4nccc(Oc5ccc(NC(=S)NC(=O)Cc6ccccc6)cc5F)c4s3)cc2)CC1`, the 50% inhibitory concentration (IC50) was under 50 nM.

Turning to `CCn1cnc(-c2cc3nccc(Oc4ccc(NC(=S)NC(=O)Cc5ccc(F)cc5F)cc4F)c3s2)c1`, the half-inhibitory concentration (IC50) was under 50 nM.

Consider `CN1CC=C(c2cc3nccc(Oc4ccc(NC(=S)NC(=O)Cc5ccc(F)cc5)cc4F)c3s2)CC1`, for which the concentration for half-maximal inhibition (IC50) lay in the range of 250 to 500 nM.

Take `CCn1cnc(-c2cc3nccc(Oc4ccc(NC(=S)NC(=O)Cc5ccc(F)cc5)cc4F)c3s2)c1`: the IC50 was under 50 nM.

As to `O=C(Cc1ccccc1)NC(=S)Nc1ccc(Oc2ccnc3cc(-c4ccc(CN5CCCC5)cn4)sc23)c(F)c1`, the 50% inhibitory concentration (IC50) was under 50 nM.

In the case of `CCn1ccnc1-c1cc2nccc(Oc3ccc(NC(=S)NC(=O)Cc4ccc(F)cc4F)cc3F)c2s1`, the half-maximal inhibitory concentration (IC50) is 50 to 250 nM.

As to `Cn1ccnc1-c1cc2nccc(Oc3ccc(NC(=S)NC(=O)Cc4ccc(F)cc4F)cc3F)c2s1`, the IC50 was under 50 nM.

For the next experiment, the system named is A549. Description: A549 wound healing inhibition (HGF dependent migration). The conditions noted are these: Homo sapiens, Table 31, read-out: A549 wound healing inbib IC50. Format: cell-based. An excerpt: (§1) HGF has well known activity in terms of inducing scattering and migration (wound healing) (Wells et al., Cell Motil Cytoskeleton. 2005 November 62(3):180-94; Miura et al., Urology 2001 December 58(6):1064-9; Nishimura et al., Int J. Urol. 1998 May 5(3):276-81; Wang et al., Mol Cancer Ther. 2003 November; 2(11):1085-92; and Christensen et al., Cancer Res. 2003 Nov. 1; 63(21):7345-55).
On to `COc1ccccc1CC(=O)NC(=S)Nc1ccc(Oc2ccnc3cc(-c4cn(CC(N)=O)cn4)sc23)c(F)c1`, for which the IC50 was over 10000 nM.

`CN1CCN(CCN(C)Cc2ccc(-c3cc4nccc(Oc5ccc(NC(=S)NC(=O)Cc6ccccc6)cc5F)c4s3)cc2)CC1`: the half-maximal inhibitory concentration (IC50) was under 1000 nM.

As for `CN(c1ccc(NC(=S)NC(=O)Cc2ccccc2)cc1F)c1ccnc2cc(-c3cn(C)cn3)sc12`, the half-maximal inhibitory concentration (IC50) is under 1000 nM.

In the case of `CN1CCN(Cc2ccc(-c3cc4nccc(Oc5ccc(NC(=S)NC(=O)Cc6ccccc6)cc5F)c4s3)nc2)CC1`, the IC50 was under 1000 nM.

For the compound `O=C(Cc1ccccc1)NC(=S)Nc1ccc(Oc2ccnc3cc(-c4cn(CCN5CCCC5)cn4)sc23)c(F)c1`, the IC50 was 5000 to 10000 nM.

With `COc1cccc(Nc2cc3nccc(Oc4ccc(NC(=S)NC(=O)Cc5ccccc5OC)cc4F)c3s2)c1`, the IC50 fell in the range of 1000 to 5000 nM.

With `CN(CCO)Cc1ccc(-c2cc3nccc(Oc4ccc(NC(=S)NC(=O)Cc5ccccc5)cc4F)c3s2)cc1`, the half-maximal inhibitory concentration (IC50) was under 1000 nM.

Consider `CN1CCN(Cc2ccc(-c3cc4nccc(Oc5ccc(NC(=S)NC(=O)Cc6ccccc6)cc5F)c4s3)cc2)CC1`, for which the IC50 is under 1000 nM.

In the case of `Cn1ccnc1-c1cc2nccc(Sc3ccc(NC(=S)NC(=O)Cc4ccccc4)cc3)c2s1`, the concentration for half-maximal inhibition (IC50) was under 1000 nM.

Take `CN1CC=C(c2cc3nccc(Oc4ccc(NC(=S)NC(=O)Cc5ccccc5)cc4F)c3s2)CC1`: the half-maximal inhibitory concentration (IC50) was under 1000 nM.

Regarding `O=C(Cc1ccccc1)NC(=S)Nc1ccc(Oc2ccnc3cc(-c4ccc(CN5CCNCC5)cc4)sc23)c(F)c1`, the IC50 lay within 1000 to 5000 nM.

As to `CCNC(=O)N1CCN(Cc2ccc(-c3cc4nccc(Oc5ccc(NC(=S)NC(=O)Cc6ccccc6)cc5F)c4s3)cc2)CC1`, the 50% inhibitory concentration (IC50) was under 1000 nM.

With `CCn1cnc(-c2cc3nccc(Oc4ccc(NC(=S)NC(=O)Cc5ccc(F)cc5F)cc4F)c3s2)c1`, the 50% inhibitory concentration (IC50) was in the range of 1000 to 5000 nM.

`CN1CC=C(c2cc3nccc(Oc4ccc(NC(=S)NC(=O)Cc5ccc(F)cc5)cc4F)c3s2)CC1`: the IC50 was under 1000 nM.

For `CCn1cnc(-c2cc3nccc(Oc4ccc(NC(=S)NC(=O)Cc5ccc(F)cc5)cc4F)c3s2)c1`, the IC50 was under 1000 nM.

`O=C(Cc1ccccc1)NC(=S)Nc1ccc(Oc2ccnc3cc(-c4ccc(CN5CCCC5)cn4)sc23)c(F)c1`: the IC50 is under 1000 nM.

In the case of `CCn1ccnc1-c1cc2nccc(Oc3ccc(NC(=S)NC(=O)Cc4ccc(F)cc4F)cc3F)c2s1`, the 50% inhibitory concentration (IC50) is under 1000 nM.

With `Cn1ccnc1-c1cc2nccc(Oc3ccc(NC(=S)NC(=O)Cc4ccc(F)cc4F)cc3F)c2s1`, the IC50 was under 1000 nM.

The next experiment deals with DU145. Description: DU145 scattering inhibition (HGF dependent scattering). Format: cell-based. The conditions noted are these: Homo sapiens, DU-145, Table 31, read-out: DU145 scattering inhib IC50.
Description: as §1
In the case of `COc1ccccc1CC(=O)NC(=S)Nc1ccc(Oc2ccnc3cc(-c4cn(CC(N)=O)cn4)sc23)c(F)c1`, the IC50 is 1000 to 5000 nM.

For `CN1CCN(CCN(C)Cc2ccc(-c3cc4nccc(Oc5ccc(NC(=S)NC(=O)Cc6ccccc6)cc5F)c4s3)cc2)CC1`, the half-maximal inhibitory concentration (IC50) is under 1000 nM.

For the compound `CN(c1ccc(NC(=S)NC(=O)Cc2ccccc2)cc1F)c1ccnc2cc(-c3cn(C)cn3)sc12`, the IC50 is under 1000 nM.

`CN1CCN(Cc2ccc(-c3cc4nccc(Oc5ccc(NC(=S)NC(=O)Cc6ccccc6)cc5F)c4s3)nc2)CC1`: the concentration for half-maximal inhibition (IC50) was under 1000 nM.

Turning to `O=C(Cc1ccccc1)NC(=S)Nc1ccc(Oc2ccnc3cc(-c4cn(CCN5CCCC5)cn4)sc23)c(F)c1`, the 50% inhibitory concentration (IC50) is under 1000 nM.

For `COc1cccc(Nc2cc3nccc(Oc4ccc(NC(=S)NC(=O)Cc5ccccc5OC)cc4F)c3s2)c1`, the IC50 lay within 1000 to 5000 nM.

As for `CN(CCO)Cc1ccc(-c2cc3nccc(Oc4ccc(NC(=S)NC(=O)Cc5ccccc5)cc4F)c3s2)cc1`, the IC50 is under 1000 nM.

As to `CN1CCN(Cc2ccc(-c3cc4nccc(Oc5ccc(NC(=S)NC(=O)Cc6ccccc6)cc5F)c4s3)cc2)CC1`, the IC50 was under 1000 nM.

With `Cn1ccnc1-c1cc2nccc(Sc3ccc(NC(=S)NC(=O)Cc4ccccc4)cc3)c2s1`, the IC50 was under 1000 nM.

As for `CN1CC=C(c2cc3nccc(Oc4ccc(NC(=S)NC(=O)Cc5ccccc5)cc4F)c3s2)CC1`, the IC50 was under 1000 nM.

Regarding `O=C(Cc1ccccc1)NC(=S)Nc1ccc(Oc2ccnc3cc(-c4ccc(CN5CCNCC5)cc4)sc23)c(F)c1`, the 50% inhibitory concentration (IC50) was under 1000 nM.

Take `CCNC(=O)N1CCN(Cc2ccc(-c3cc4nccc(Oc5ccc(NC(=S)NC(=O)Cc6ccccc6)cc5F)c4s3)cc2)CC1`: the IC50 was under 1000 nM.

On to `CCn1cnc(-c2cc3nccc(Oc4ccc(NC(=S)NC(=O)Cc5ccc(F)cc5F)cc4F)c3s2)c1`, for which the half-inhibitory concentration (IC50) was under 1000 nM.

As for `CN1CC=C(c2cc3nccc(Oc4ccc(NC(=S)NC(=O)Cc5ccc(F)cc5)cc4F)c3s2)CC1`, the IC50 is under 1000 nM.

As for `CCn1cnc(-c2cc3nccc(Oc4ccc(NC(=S)NC(=O)Cc5ccc(F)cc5)cc4F)c3s2)c1`, the half-inhibitory concentration (IC50) was under 1000 nM.

Take `O=C(Cc1ccccc1)NC(=S)Nc1ccc(Oc2ccnc3cc(-c4ccc(CN5CCCC5)cn4)sc23)c(F)c1`: the IC50 was under 1000 nM.

For `CCn1ccnc1-c1cc2nccc(Oc3ccc(NC(=S)NC(=O)Cc4ccc(F)cc4F)cc3F)c2s1`, the half-inhibitory concentration (IC50) was under 1000 nM.

`Cn1ccnc1-c1cc2nccc(Oc3ccc(NC(=S)NC(=O)Cc4ccc(F)cc4F)cc3F)c2s1`: the IC50 is under 1000 nM.
